Reference: ChEMBL document CHEMBL4304804, “Synthesis and biological evaluation of calycanthaceous alkaloid analogs” (Bioorg Med Chem, 2019)
Values after ≈ are worked out from the molar mass of the structure shown. Active and inactive are the calls of the source. No cut-off for these calls is given here.

How the values were obtained:
Verticillium dahliae = assay: Antifungal activity against Verticillium dahliae assessed as reduction in fungal cell growth incubated for 48 hrs by serial dilution method; type: functional
[1] = system: Fusarium oxysporum f. sp. vasinfectum; assay: Antifungal activity against Fusarium oxysporum sp. vasinfectum assessed as reduction in fungal cell growth incubated for 48 hrs by serial dilution method; type: functional
Cytospora = assay: Antifungal activity against Cytospora juglandis assessed as reduction in fungal cell growth incubated for 48 hrs by serial dilution method; type: functional
Aspergillus flavus = assay: Antifungal activity against Aspergillus flavus assessed as reduction in fungal cell growth incubated for 48 hrs by serial dilution method; type: functional
Penicillium citrinum = assay: Antifungal activity against Penicillium citrinum assessed as reduction in fungal cell growth incubated for 48 hrs by serial dilution method; type: functional
Fusarium oxysporum = assay: Antifungal activity against Fusarium oxysporum assessed as reduction in fungal cell growth incubated for 48 hrs by serial dilution method; type: functional
[2] = system: Colletotrichum orbiculare; assay: Antifungal activity against Colletotrichum orbiculare assessed as reduction in fungal cell growth incubated for 48 hrs by serial dilution method; type: functional
Aspergillus niger = assay: Antifungal activity against Aspergillus niger assessed as reduction in fungal cell growth incubated for 48 hrs by serial dilution method; type: functional
Curvularia lunata = assay: Antifungal activity against Curvularia lunata assessed as reduction in fungal cell growth incubated for 48 hrs by serial dilution method; type: functional
Escherichia coli = assay: Antibacterial activity against Escherichia coli assessed as reduction in bacterial cell growth incubated for 24 hrs by filter paper assay; type: functional
Pseudomonas aeruginosa = assay: Antibacterial activity against Pseudomonas aeruginosa assessed as reduction in bacterial cell growth incubated for 24 hrs by filter paper assay; type: functional
Ralstonia solanacearum = assay: Antibacterial activity against Ralstonia solanacearum assessed as reduction in bacterial cell growth incubated for 24 hrs by filter paper assay; type: functional
Bacillus cereus = assay: Antibacterial activity against Bacillus cereus assessed as reduction in bacterial cell growth incubated for 24 hrs by filter paper assay; type: functional
Staphylococcus aureus = assay: Antibacterial activity against Staphylococcus aureus assessed as reduction in bacterial cell growth incubated for 24 hrs by filter paper assay; type: functional
Candida [3] = assay: Antifungal activity against […] assessed as reduction in fungal cell growth incubated for 48 hrs by serial dilution method; type: functional
Cryptococcus neoformans = assay: Antifungal activity against Cryptococcus neoformans assessed as reduction in fungal cell growth incubated for 48 hrs by serial dilution method; type: functional
Candida tropicalis = assay: Antifungal activity against Candida tropicalis assessed as reduction in fungal cell growth incubated for 48 hrs by serial dilution method; type: functional
Acetylcholinesterase = Acetylcholinesterase (Electrophorus electricus, UniProt O42275); assay: Inhibition of electric eel AChE by Ellman's colorimetry
[4] = molecular target: Acetylcholinesterase (Electrophorus electricus) (UniProt O42275); assay: Inhibition of electric eel AChE by at 1 mg/ml Ellman's colorimetry relative to control
Candida [5] = assay: Antifungal activity against […] assessed as reduction in fungal spore germination at 500 ug/ml relative to control; type: functional

Chain of Acetylcholinesterase (Electrophorus electricus) (O42275 24-633 limits assumed): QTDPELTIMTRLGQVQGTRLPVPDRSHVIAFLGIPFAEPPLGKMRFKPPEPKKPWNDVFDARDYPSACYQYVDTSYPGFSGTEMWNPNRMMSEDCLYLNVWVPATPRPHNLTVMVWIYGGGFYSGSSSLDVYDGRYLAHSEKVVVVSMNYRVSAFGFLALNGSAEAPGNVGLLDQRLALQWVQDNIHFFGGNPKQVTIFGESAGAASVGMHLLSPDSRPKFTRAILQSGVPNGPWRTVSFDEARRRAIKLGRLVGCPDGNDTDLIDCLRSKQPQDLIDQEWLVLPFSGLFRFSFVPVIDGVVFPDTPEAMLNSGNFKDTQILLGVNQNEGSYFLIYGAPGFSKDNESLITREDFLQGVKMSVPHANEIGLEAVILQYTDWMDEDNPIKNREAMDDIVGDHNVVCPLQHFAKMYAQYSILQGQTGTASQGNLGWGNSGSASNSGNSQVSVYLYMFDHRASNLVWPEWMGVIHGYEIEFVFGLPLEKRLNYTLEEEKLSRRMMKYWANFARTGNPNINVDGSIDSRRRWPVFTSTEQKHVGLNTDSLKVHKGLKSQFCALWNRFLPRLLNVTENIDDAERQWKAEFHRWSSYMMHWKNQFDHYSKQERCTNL
Chain of Acetylcholinesterase (O42275 whole entry): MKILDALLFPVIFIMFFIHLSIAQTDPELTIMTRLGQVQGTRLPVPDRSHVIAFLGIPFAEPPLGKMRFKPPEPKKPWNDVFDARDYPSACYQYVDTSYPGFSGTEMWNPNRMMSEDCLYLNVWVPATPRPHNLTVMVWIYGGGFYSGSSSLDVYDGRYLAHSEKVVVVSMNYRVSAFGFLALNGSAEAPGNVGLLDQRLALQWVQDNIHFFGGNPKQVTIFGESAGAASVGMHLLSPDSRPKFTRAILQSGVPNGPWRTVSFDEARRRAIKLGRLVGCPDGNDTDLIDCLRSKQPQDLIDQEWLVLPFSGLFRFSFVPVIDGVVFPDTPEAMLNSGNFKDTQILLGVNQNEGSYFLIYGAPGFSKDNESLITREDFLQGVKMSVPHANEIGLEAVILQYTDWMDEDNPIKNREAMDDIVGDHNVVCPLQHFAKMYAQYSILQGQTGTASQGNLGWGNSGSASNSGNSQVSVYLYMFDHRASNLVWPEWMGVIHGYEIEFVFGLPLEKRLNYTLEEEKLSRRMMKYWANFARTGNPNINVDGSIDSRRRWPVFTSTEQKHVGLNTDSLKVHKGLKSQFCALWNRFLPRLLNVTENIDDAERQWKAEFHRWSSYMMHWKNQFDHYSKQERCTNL

Structure (SMILES) | MIC (Verticillium dahliae) | MIC [1] | MIC (Cytospora) | MIC (Aspergillus flavus) | MIC (Penicillium citrinum) | MIC (Fusarium oxysporum) | MIC [2] | MIC (Aspergillus niger) | MIC (Curvularia lunata) | MIC (Escherichia coli) | MIC (Pseudomonas aeruginosa) | MIC (Ralstonia solanacearum) | MIC (Bacillus cereus) | MIC (Staphylococcus aureus) | MIC (Candida [3]) | MIC (Cryptococcus neoformans) | MIC (Candida tropicalis) | IC50 (Acetylcholinesterase) | inhibition [4] | inhibition at 500 µg/mL (Candida [5])
CN1c2ccccc2C2(O)CCCN(C(=O)c3ccc(F)cc3)C12 (centres undefined) | 250 µg/mL (≈ 766 µM) | 250 µg/mL (≈ 766 µM) | 250 µg/mL (≈ 766 µM) | 250 µg/mL (≈ 766 µM) | 250 µg/mL (≈ 766 µM) | 250 µg/mL (≈ 766 µM) | 250 µg/mL (≈ 766 µM) | inactive | 125 µg/mL (≈ 383 µM) | 250 µg/mL (≈ 766 µM) | 250 µg/mL (≈ 766 µM) | 125 µg/mL (≈ 383 µM) | inactive | 250 µg/mL (≈ 766 µM) | inactive | inactive | 250 µg/mL (≈ 766 µM) | 0.306 nM | > 80% | –
CCCCCCCC(=O)N1CCC2(Cc3cccc(C)c3)c3ccccc3N(Cc3cccc(C)c3)C12 (centres undefined) | 62.5 µg/mL (≈ 126 µM) | 250 µg/mL (≈ 505 µM) | 125 µg/mL (≈ 253 µM) | 250 µg/mL (≈ 505 µM) | 250 µg/mL (≈ 505 µM) | 125 µg/mL (≈ 253 µM) | 250 µg/mL (≈ 505 µM) | 250 µg/mL (≈ 505 µM) | 125 µg/mL (≈ 253 µM) | 250 µg/mL (≈ 505 µM) | 125 µg/mL (≈ 253 µM) | 62.5 µg/mL (≈ 126 µM) | 62.5 µg/mL (≈ 126 µM) | 125 µg/mL (≈ 253 µM) | 31.2 µg/mL (≈ 63.2 µM) | 125 µg/mL (≈ 253 µM) | 125 µg/mL (≈ 253 µM) | 87900 nM | – | 87.5%
Cc1ccc(C(=O)N2CCCC3(O)c4ccccc4N(C)C23)cc1 (centres undefined) | 250 µg/mL (≈ 775 µM) | inactive | inactive | inactive | inactive | inactive | inactive | inactive | inactive | inactive | 250 µg/mL (≈ 775 µM) | inactive | inactive | inactive | inactive | inactive | inactive | 2850 nM | > 80% | –
CC(C)C(=O)N1CCCC2(O)c3ccccc3N(C)C12 (centres undefined) | 250 µg/mL (≈ 911 µM) | inactive | inactive | inactive | inactive | inactive | inactive | inactive | inactive | inactive | 250 µg/mL (≈ 911 µM) | inactive | inactive | inactive | inactive | inactive | inactive | 510 nM | > 80% | –
CCC(=O)N1CCCC2(O)c3ccccc3N(C)C12 (centres undefined) | 250 µg/mL (≈ 960 µM) | inactive | inactive | inactive | inactive | inactive | inactive | inactive | inactive | inactive | 250 µg/mL (≈ 960 µM) | 31.2 µg/mL (≈ 120 µM) | inactive | inactive | inactive | inactive | inactive | 0.0384 nM | > 80% | –
CN1c2ccccc2C2(O)CCCN(C(=O)c3ccccc3)C12 (centres undefined) | inactive | inactive | inactive | inactive | inactive | inactive | inactive | inactive | inactive | 250 µg/mL (≈ 811 µM) | 250 µg/mL (≈ 811 µM) | 62.5 µg/mL (≈ 203 µM) | inactive | 250 µg/mL (≈ 811 µM) | inactive | inactive | 250 µg/mL (≈ 811 µM) | 259 nM | > 80% | –
